Source: PMC3731299, “Isoniazid Inhibits the Heme-Based Reactivity of Mycobacterium tuberculosis Truncated Hemoglobin N” (PLoS ONE, 2013)
Read-outs that look alike come from different tables or passages of the source. Marks after values point to notes of the source that are not given here.

How the values were obtained:
Mt-trHbN(II) [1] = target: T1, Mt-trHbN(II) (Mycobacterium tuberculosis, UniProt P9WN25); assay: O2 binding to Mt-trHbN(II) in the absence and presence of isoniazid (tonometer method)
T1 construct: made in house
Protocol: The value of B was determined by the tonometer method adding small volumes of air to the Mt-trHbN(II) solution (1.3×10^−6 M), in the absence and presence of isoniazid ( = 1.0×10^−2 M; B ^obs).

Sperm whale Mb(II) [2] = target: Sperm whale Mb(II); parameters: method as in ref 58 = [58]; 58 Antonini E, Brunori M (1971) Hemoglobin and myoglobin in their reactions with ligands. Amsterdam, London: North Holland Publishing Co.; details: read-out: B for O2 binding to sperm whale Mb(II); pH 7.0, 20.0°C; cited from earlier work
Sperm whale Mb(III) = details: pH 7.5, 20.0°C; cited from earlier work
Sperm whale Mb(II) [3] = tested on: Sperm whale Mb(II); parameters: method as in PMID 3733708; details: pH 7.0, 20.0°C; cited from earlier work
Mt-trHbN(II) [4] = target: T1, Mt-trHbN(II); assay type: binding

O=O [O2]
Kd (Mt-trHbN(II) [1]; [isoniazid] = 1.0×10^−2 M, from B and D, read-out: B obs calculated according to Equation 16): 410 nM | P 50 for O2 binding to Mt-trHbN(II) in the presence of isoniazid (Mt-trHbN(II) [1]; [isoniazid] = 1.0×10^−2 M, corresponds to B obs): (2.3±0.3)×10^−1 mm Hg | P 50 for O2 binding to Mt-trHbN(II) (Mt-trHbN(II) [1]; absence of isoniazid, corresponds to B): (2.4±0.4)×10^−2 mm Hg | Kd (Mt-trHbN(II) [1]; read-out: dissociation equilibrium constant B for O2 binding to Mt-trHbN(II), absence of isoniazid, pH 7.0, 20.0°C, Equation 15): 44 nM | Kd (Sperm whale Mb(II) [2]): 520 nM

O=NOO [peroxynitrite]
l on for peroxynitrite detoxification by sperm whale Mb(III) (Sperm whale Mb(III)): l on = 1.6×10^4 M^−1 s^−1 ^e

[C-]#[O+] [CO]
f off for CO binding to sperm whale Mb(II) (Sperm whale Mb(II) [3]): f off = 1.9×10^−2 s^−1h | f on for CO binding to sperm whale Mb(II) (Sperm whale Mb(II) [3]): f on = 5.1×10^5 M^−1 s^−1 ^h | amplitude (1 – a) of the CO binding process (slow phase) (Mt-trHbN(II) [4]): 0.62 | amplitude a of the CO binding process (Mt-trHbN(II) [4]): 1 | amplitude a of the CO binding process (isoniazid-free fraction, fast phase) (Mt-trHbN(II) [4]): 0.38 | f obs, pseudo-first order rate constant for CO binding (Mt-trHbN(II) [4]): 170 s⁻¹ | f obs, pseudo-first order rate constant for CO binding (fast phase) (Mt-trHbN(II) [4]): 170 s⁻¹ | f obsi, pseudo-first order rate constant for CO binding in the presence of isoniazid (slow phase) (Mt-trHbN(II) [4]): 1.5 s⁻¹ | second-order association rate constant f on for CO binding to Mt-trHbN(II) (Mt-trHbN(II) [4]; pH 7): f on = (3.8±0.5)×10^6 M^−1 s^−1
